In test [1] the target is human Cereblon WT GST-tagged protein (Homo sapiens (Human), UniProt Q96SW2). The experiment in a line: CRBN-binding affinity, HTRF (CEREBLON BINDING kit, CISBIO). The note with it: HTRF inhibitory activity. An outline of the steps:
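HTRF competition format: test compound displaces Thalidomide-Red from GST-tagged human Cereblon WT, detected with a Eu-labelled anti-GST antibody. Percent CRBN binding inhibition was derived from the 620 nm signal, normalized to solvent-control and protein-free blank wells.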

In another test the target is IKZF1 (Homo sapiens (Human), UniProt Q13422+Q96SW2). The experiment in a line: Western blot, substrate protein expression in hPBMC: IKZF1. The test is classed as cell-based. The note with it: hPBMC, compound 500 nM, 24 hours, Western blot. An outline of the steps:
(§1)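 hPBMC, 1×10^6 cells/mL, 24 h compound exposure; RIPA lysis, BCA protein assay, SDS-PAGE, NC membrane immunoblot. Densitometry vs internal control → % protein remaining; degradation % = 100% − remaining; DC50 = conc. at 50% of DMSO band signal.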
(In general: A western blot detects proteins with antibodies after separation by electrophoresis.)

Another test has as its target GSPT1 (Homo sapiens (Human), UniProt P15170+Q96SW2). The experiment in a line: Western blot, substrate protein expression in hPBMC: GSPT1. The test is classed as cell-based. As to conditions: hPBMC, compound 500 nM, 24 hours, Western blot. An outline of the steps:
as §1

The next test addresses IKZF3 (Homo sapiens (Human), UniProt Q96SW2+Q9UKT9). Description: Western blot, substrate protein expression in hPBMC: IKZF3. The test is classed as cell-based. The note with it: hPBMC, compound 500 nM, 24 hours, Western blot. An outline of the steps:
as §1

SMILES strings stand for the structures.

IKZF1, sequence (Q13422 whole entry): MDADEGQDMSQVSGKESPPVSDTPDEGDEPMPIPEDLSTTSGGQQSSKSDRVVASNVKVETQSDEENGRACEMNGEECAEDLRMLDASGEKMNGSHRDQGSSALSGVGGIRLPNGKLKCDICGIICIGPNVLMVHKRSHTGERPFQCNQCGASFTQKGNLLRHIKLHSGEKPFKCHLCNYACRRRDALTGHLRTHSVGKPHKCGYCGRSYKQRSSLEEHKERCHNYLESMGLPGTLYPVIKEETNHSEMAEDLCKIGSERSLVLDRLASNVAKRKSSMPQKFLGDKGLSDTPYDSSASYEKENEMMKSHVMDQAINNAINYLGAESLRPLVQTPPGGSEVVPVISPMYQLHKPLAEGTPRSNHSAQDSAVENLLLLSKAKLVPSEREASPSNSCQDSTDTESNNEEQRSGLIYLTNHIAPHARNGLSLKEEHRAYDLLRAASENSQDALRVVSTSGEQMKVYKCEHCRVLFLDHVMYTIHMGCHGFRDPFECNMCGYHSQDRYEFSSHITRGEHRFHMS
IKZF1, sequence (Q96SW2 whole entry): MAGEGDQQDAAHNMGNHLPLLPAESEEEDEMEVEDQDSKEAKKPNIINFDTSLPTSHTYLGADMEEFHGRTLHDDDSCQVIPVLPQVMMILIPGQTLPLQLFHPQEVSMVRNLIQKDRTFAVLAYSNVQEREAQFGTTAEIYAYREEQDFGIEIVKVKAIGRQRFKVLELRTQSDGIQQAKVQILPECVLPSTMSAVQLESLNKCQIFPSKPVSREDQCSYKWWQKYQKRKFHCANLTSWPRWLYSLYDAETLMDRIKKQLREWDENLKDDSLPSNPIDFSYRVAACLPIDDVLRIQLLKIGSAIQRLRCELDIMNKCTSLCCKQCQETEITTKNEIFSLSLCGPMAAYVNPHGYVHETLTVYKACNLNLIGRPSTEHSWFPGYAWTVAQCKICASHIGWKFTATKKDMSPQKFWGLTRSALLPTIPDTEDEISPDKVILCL
IKZF1, sequence (Q16531 whole entry partner): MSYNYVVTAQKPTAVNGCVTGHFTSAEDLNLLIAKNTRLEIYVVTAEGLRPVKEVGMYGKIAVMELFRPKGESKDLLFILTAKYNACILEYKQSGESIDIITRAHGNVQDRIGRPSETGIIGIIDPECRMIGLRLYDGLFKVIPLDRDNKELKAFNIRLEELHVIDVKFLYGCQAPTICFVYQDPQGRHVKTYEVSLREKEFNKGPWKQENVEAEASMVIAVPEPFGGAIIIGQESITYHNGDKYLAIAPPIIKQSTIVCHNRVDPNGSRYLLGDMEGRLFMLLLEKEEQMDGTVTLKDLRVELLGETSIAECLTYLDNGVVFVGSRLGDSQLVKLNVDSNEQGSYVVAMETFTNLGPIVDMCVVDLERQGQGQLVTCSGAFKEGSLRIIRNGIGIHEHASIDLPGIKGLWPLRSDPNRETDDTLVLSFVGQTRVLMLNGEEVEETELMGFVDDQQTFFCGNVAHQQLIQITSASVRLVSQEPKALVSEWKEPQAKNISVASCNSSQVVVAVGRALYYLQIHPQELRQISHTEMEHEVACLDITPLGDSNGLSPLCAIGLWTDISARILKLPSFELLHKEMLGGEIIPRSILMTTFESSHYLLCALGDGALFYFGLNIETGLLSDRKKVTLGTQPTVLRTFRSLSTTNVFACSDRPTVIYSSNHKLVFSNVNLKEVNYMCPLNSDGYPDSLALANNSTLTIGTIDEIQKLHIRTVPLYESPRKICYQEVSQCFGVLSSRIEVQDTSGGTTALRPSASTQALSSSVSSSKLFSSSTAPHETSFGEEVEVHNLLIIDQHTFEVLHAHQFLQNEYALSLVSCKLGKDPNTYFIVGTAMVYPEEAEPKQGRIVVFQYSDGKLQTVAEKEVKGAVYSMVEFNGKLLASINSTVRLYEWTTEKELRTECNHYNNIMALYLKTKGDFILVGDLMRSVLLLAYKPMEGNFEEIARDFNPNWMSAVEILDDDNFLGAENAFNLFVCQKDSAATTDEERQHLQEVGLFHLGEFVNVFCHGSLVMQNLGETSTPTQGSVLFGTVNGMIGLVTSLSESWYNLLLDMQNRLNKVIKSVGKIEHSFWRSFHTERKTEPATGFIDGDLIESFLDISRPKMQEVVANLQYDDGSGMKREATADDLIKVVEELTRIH
human Cereblon WT GST-tagged protein, sequence (Q96SW2 whole entry): as the sequence (Q96SW2 whole entry) above
GSPT1, sequence (P15170 whole entry): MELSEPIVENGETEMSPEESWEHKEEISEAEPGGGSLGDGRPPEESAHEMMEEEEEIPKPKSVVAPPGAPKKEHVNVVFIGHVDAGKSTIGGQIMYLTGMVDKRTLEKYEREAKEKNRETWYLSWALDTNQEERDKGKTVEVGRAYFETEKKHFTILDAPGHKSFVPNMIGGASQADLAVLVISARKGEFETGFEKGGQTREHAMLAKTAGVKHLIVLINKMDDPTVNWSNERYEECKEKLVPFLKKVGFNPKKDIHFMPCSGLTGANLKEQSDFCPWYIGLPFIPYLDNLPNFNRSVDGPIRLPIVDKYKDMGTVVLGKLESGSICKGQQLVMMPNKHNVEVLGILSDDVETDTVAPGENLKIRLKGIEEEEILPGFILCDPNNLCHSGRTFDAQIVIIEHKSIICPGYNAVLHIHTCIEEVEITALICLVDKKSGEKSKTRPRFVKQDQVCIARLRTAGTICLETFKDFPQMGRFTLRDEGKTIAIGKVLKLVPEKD
GSPT1, sequence (Q96SW2 whole entry): as the sequence (Q96SW2 whole entry) above
GSPT1, sequence (Q16531 whole entry partner): as the sequence (Q16531 whole entry partner) above
IKZF3, sequence (Q9UKT9 whole entry): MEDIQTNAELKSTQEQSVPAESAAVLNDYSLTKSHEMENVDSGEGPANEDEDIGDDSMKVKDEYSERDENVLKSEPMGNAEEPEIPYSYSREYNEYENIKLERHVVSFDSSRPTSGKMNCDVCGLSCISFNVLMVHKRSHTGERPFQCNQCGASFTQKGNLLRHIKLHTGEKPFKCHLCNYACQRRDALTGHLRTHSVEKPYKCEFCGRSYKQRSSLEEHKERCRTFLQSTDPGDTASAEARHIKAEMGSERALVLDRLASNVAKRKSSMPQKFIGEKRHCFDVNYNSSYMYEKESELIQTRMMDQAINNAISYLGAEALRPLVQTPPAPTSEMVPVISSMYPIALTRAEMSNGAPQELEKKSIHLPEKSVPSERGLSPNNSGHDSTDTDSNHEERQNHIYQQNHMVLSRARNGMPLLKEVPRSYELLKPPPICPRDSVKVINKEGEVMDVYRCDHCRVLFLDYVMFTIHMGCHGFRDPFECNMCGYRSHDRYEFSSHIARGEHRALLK
IKZF3, sequence (Q96SW2 whole entry): as the sequence (Q96SW2 whole entry) above
IKZF3, sequence (Q16531 whole entry partner): as the sequence (Q16531 whole entry partner) above

As a reminder, the IC50 is the concentration that gives 50% inhibition. Compound `O=C1CCC(N2Cc3cc(CN4CCN(C(c5ccc(F)cc5)c5ccc(F)cc5)CC4)cc(F)c3C2=O)C(=O)N1` (stereo not shown) [GT-03565, 3-(5-((4-(bis(4-fluorophenyl)methyl)piperazin-1-yl)methyl)-7-fluoro-1-oxoisoindolin-2-yl)piperidine-2,6-dione] had an IC50 in test [1] of under 500 nM. Also, the “substrate protein remaining % IKZF1” value on IKZF1 was “B (B represents substrate protein remaining % > 50%)”. Moreover, the “substrate protein remaining % GSPT1” value at GSPT1 is “A (A represents 0% ≤ substrate protein remaining % ≤ 50%)”. For the same compound, on IKZF3, the “substrate protein remaining % IKZF3” value is on record as “B (B represents substrate protein remaining % > 50%)”.
Compound `O=C1CCC(N2Cc3c(ccc(CN4CCN(C(c5ccc(Cl)cc5)c5ccc(Cl)cc5)CC4)c3F)C2=O)C(=O)N1` (stereo not shown) [GT-03567, 3-(5-((4-(bis(4-chlorophenyl)methyl)piperazin-1-yl)methyl)-4-fluoro-1-oxoisoindolin-2-yl)piperidine-2,6-dione] gave an IC50 in test [1] of 1000 to 1900 nM. The “substrate protein remaining % IKZF1” value at IKZF1 was “B (B represents substrate protein remaining % > 50%)”. Further, the “substrate protein remaining % GSPT1” value at GSPT1 is listed as “A (A represents 0% ≤ substrate protein remaining % ≤ 50%)”. Besides, the “substrate protein remaining % IKZF3” value at IKZF3 is given as “A (A represents 0% ≤ substrate protein remaining % ≤ 50%)”.
Compound `O=C1CCC(N2Cc3cc(CN4C5CC4CN(C(c4ccccc4)c4ccccc4)C5)ccc3C2=O)C(=O)N1` (stereo not shown) [GT-03569, 3-(5-((3-benzhydryl-3,6-diazabicyclo[3.1.1]heptan-6-yl)methyl)-1-oxoisoindolin-2-yl)piperidine-2,6-dione] yielded an IC50 in test [1] of 500 to 1000 nM. For the same compound, the “substrate protein remaining % IKZF1” value at IKZF1 is given as “B (B represents substrate protein remaining % > 50%)”. Further, the “substrate protein remaining % GSPT1” value at GSPT1 was “A (A represents 0% ≤ substrate protein remaining % ≤ 50%)”. Moreover, the “substrate protein remaining % IKZF3” value on IKZF3 is recorded as “A (A represents 0% ≤ substrate protein remaining % ≤ 50%)”.
In test [1], `O=C1CCC(N2Cc3cc(CN4C[C@H]5C[C@@H]4CN5C(c4ccccc4)c4ccccc4)ccc3C2=O)C(=O)N1` (stereo partly drawn) [GT-03570, 3-(5-(((1R,4R)-5-benzhydryl-2,5-diazabicyclo[2.2.1]heptan-2-yl)methyl)-1-oxoisoindolin-2-yl)piperidine-2,6-dione] showed an IC50 of under 500 nM. On IKZF1, the “substrate protein remaining % IKZF1” value was “B (B represents substrate protein remaining % > 50%)”. Also, the “substrate protein remaining % GSPT1” value at GSPT1 is “A (A represents 0% ≤ substrate protein remaining % ≤ 50%)”. The “substrate protein remaining % IKZF3” value at IKZF3 is “B (B represents substrate protein remaining % > 50%)”.
Consider `O=C1CCC(N2C(=O)c3ccc(CN4CCN(C(c5ccccc5)c5ccncc5)CC4)cc3C2=O)C(=O)N1` (stereo not shown) [GT-06115, 2-(2,6-dioxopiperidin-3-yl)-5-((4-(phenyl(pyridin-4-yl)methyl)piperazin-1-yl)methyl) isoindoline-1,3-dione], for which the “substrate protein remaining % IKZF1” value at IKZF1 is reported as “B (B represents substrate protein remaining % > 50%)”. Moreover, the “substrate protein remaining % GSPT1” value at GSPT1 was “A (A represents 0% ≤ substrate protein remaining % ≤ 50%)”. Moreover, the “substrate protein remaining % IKZF3” value at IKZF3 is “B (B represents substrate protein remaining % > 50%)”.
As to `O=C1CCC(N2Cc3c(ccc(CN4CCN(C(c5ccc(C(F)(F)F)cc5)c5ccc(C(F)(F)F)cc5)CC4)c3F)C2=O)C(=O)N1` (stereo not shown) [GT-06200, 3-(5-((4-(bis(4-(trifluoromethyl)phenyl)methyl)piperazin-1-yl)methyl)-4-fluoro-1-oxoisoindolin-2-yl)piperidine-2,6-dione], the “substrate protein remaining % IKZF1” value on IKZF1 is “B (B represents substrate protein remaining % > 50%)”. Further, the “substrate protein remaining % GSPT1” value at GSPT1 was “A (A represents 0% ≤ substrate protein remaining % ≤ 50%)”. In addition, on IKZF3, the “substrate protein remaining % IKZF3” value was “A (A represents 0% ≤ substrate protein remaining % ≤ 50%)”.
For the compound `O=C1CCC(N2Cc3cc(CN4CCN(C(c5ccc(C(F)(F)F)cc5)c5ccc(C(F)(F)F)cc5)CC4)c(F)cc3C2=O)C(=O)N1` (stereo not shown) [GT-06201, 3-(5-((4-(bis(4-(trifluoromethyl)phenyl)methyl)piperazin-1-yl)methyl)-6-fluoro-1-oxoisoindolin-2-yl)piperidine-2,6-dione], the “substrate protein remaining % IKZF1” value on IKZF1 is on record as “B (B represents substrate protein remaining % > 50%)”. In addition, the “substrate protein remaining % GSPT1” value at GSPT1 was “A (A represents 0% ≤ substrate protein remaining % ≤ 50%)”. Moreover, at IKZF3, the “substrate protein remaining % IKZF3” value was “A (A represents 0% ≤ substrate protein remaining % ≤ 50%)”.
For `O=C1CCC(N2C(=O)c3ccc(CN4CCN(C(c5ccc(C(F)(F)F)cc5)c5ccc(C(F)(F)F)cc5)CC4)cc3C2=O)C(=O)N1` (stereo not shown) [GT-06203, 5-((4-(bis(4-(trifluoromethyl)phenyl)methyl)piperazin-1-yl)methyl)-2-(2,6-dioxopiperidin-3-yl) isoindoline-1,3-dione], at IKZF1, the “substrate protein remaining % IKZF1” value is on record as “B (B represents substrate protein remaining % > 50%)”. Also, the “substrate protein remaining % GSPT1” value at GSPT1 was “A (A represents 0% ≤ substrate protein remaining % ≤ 50%)”. The “substrate protein remaining % IKZF3” value at IKZF3 is on record as “A (A represents 0% ≤ substrate protein remaining % ≤ 50%)”.
Take `O=C1CCC(N2C(=O)c3ccc(C(=O)N4CCN(C(c5ccc(C(F)(F)F)cc5)c5ccc(C(F)(F)F)cc5)CC4)cc3C2=O)C(=O)N1` (stereo not shown) [GT-06217, 5-(4-(bis(4-(trifluoromethyl)phenyl)methyl)piperazine-1-carbonyl)-2-(2,6-dioxopiperidin-3-yl) isoindoline-1,3-dione]: the “substrate protein remaining % IKZF1” value on IKZF1 is reported as “B (B represents substrate protein remaining % > 50%)”. Also, the “substrate protein remaining % GSPT1” value on GSPT1 was “A (A represents 0% ≤ substrate protein remaining % ≤ 50%)”. Moreover, the “substrate protein remaining % IKZF3” value on IKZF3 is recorded as “B (B represents substrate protein remaining % > 50%)”.
Consider `CC1(C)CN(C(=O)c2ccc3c(c2)C(=O)N(C2CCC(=O)NC2=O)C3=O)CCN1C(c1ccccc1)c1ccccc1` (stereo not shown) [GT-06278, 5-(4-benzhydryl-3,3-dimethylpiperazine-1-carbonyl)-2-(2,6-dioxopiperidin-3-yl) isoindoline-1,3-dione], for which the “substrate protein remaining % IKZF1” value at IKZF1 is recorded as “B (B represents substrate protein remaining % > 50%)”. In addition, at GSPT1, the “substrate protein remaining % GSPT1” value was “A (A represents 0% ≤ substrate protein remaining % ≤ 50%)”. Further, the “substrate protein remaining % IKZF3” value at IKZF3 is “B (B represents substrate protein remaining % > 50%)”.
On to `O=C1CCC(N2Cc3cc(CN4CCN(C(c5ccc(OCc6ccccc6)cc5)c5ccc(OCc6ccccc6)cc5)CC4)ccc3C2=O)C(=O)N1` (stereo not shown) [GT-06424, 3-(5-((4-(bis(4-(benzyloxy)phenyl)methyl)piperazin-1-yl)methyl)-1-oxoisoindolin-2-yl)piperidine-2,6-dione], for which the “substrate protein remaining % IKZF1” value at IKZF1 is “B (B represents substrate protein remaining % > 50%)”. Moreover, the “substrate protein remaining % GSPT1” value on GSPT1 is recorded as “A (A represents 0% ≤ substrate protein remaining % ≤ 50%)”. Further, on IKZF3, the “substrate protein remaining % IKZF3” value is reported as “A (A represents 0% ≤ substrate protein remaining % ≤ 50%)”.
Turning to `O=C1CCC(N2C(=O)c3ccc(CN4CCN(C(c5ccc(OCc6ccccc6)cc5)c5ccc(OCc6ccccc6)cc5)CC4)cc3C2=O)C(=O)N1` (stereo not shown) [GT-06425, 5-((4-(bis(4-(benzyloxy)phenyl)methyl)piperazin-1-yl)methyl)-2-(2,6-dioxopiperidin-3-yl) isoindoline-1,3-dione], the “substrate protein remaining % IKZF1” value on IKZF1 is “B (B represents substrate protein remaining % > 50%)”. The “substrate protein remaining % GSPT1” value at GSPT1 was “A (A represents 0% ≤ substrate protein remaining % ≤ 50%)”. For the same compound, the “substrate protein remaining % IKZF3” value at IKZF3 is on record as “A (A represents 0% ≤ substrate protein remaining % ≤ 50%)”.
As to `O=C1CCC(N2C(=O)c3ccc(C(=O)N4CCN(C(c5ccc(OCc6ccccc6)cc5)c5ccc(OCc6ccccc6)cc5)CC4)cc3C2=O)C(=O)N1` (stereo not shown) [GT-06558, 5-(4-(bis(4-(benzyloxy)phenyl)methyl)piperazine-1-carbonyl)-2-(2,6-dioxopiperidin-3-yl) isoindoline-1,3-dione], the “substrate protein remaining % IKZF1” value on IKZF1 was “A (A represents 0% ≤ substrate protein remaining % ≤ 50%)”. The “substrate protein remaining % GSPT1” value on GSPT1 is given as “A (A represents 0% ≤ substrate protein remaining % ≤ 50%)”. The “substrate protein remaining % IKZF3” value on IKZF3 is given as “B (B represents substrate protein remaining % > 50%)”.
Take `O=C1CCC(N2C(=O)c3ccc(C(=O)N4CCN(C(c5cc(F)cc(F)c5)c5cc(F)cc(F)c5)CC4)cc3C2=O)C(=O)N1` (stereo not shown) [GT-06598, 5-(4-(bis(3,5-difluorophenyl)methyl)piperazine-1-carbonyl)-2-(2,6-dioxopiperidin-3-yl) isoindoline-1,3-dione]: on IKZF1, the “substrate protein remaining % IKZF1” value is “B (B represents substrate protein remaining % > 50%)”. Besides, the “substrate protein remaining % GSPT1” value on GSPT1 is given as “A (A represents 0% ≤ substrate protein remaining % ≤ 50%)”. Moreover, the “substrate protein remaining % IKZF3” value on IKZF3 was “B (B represents substrate protein remaining % > 50%)”.
Regarding `O=C1CCC(N2C(=O)c3ccc(CN4CCN(C(c5ccccc5)c5ccc(Br)cc5)CC4)cc3C2=O)C(=O)N1` (stereo not shown) [GT-06639, 5-((4-((4-bromophenyl) (phenyl)methyl)piperazin-1-yl)methyl)-2-(2,6-dioxopiperidin-3-yl) isoindoline-1,3-dione], the “substrate protein remaining % IKZF1” value at IKZF1 is on record as “A (A represents 0% ≤ substrate protein remaining % ≤ 50%)”. In addition, the “substrate protein remaining % GSPT1” value at GSPT1 is listed as “A (A represents 0% ≤ substrate protein remaining % ≤ 50%)”. Moreover, at IKZF3, the “substrate protein remaining % IKZF3” value is given as “A (A represents 0% ≤ substrate protein remaining % ≤ 50%)”.

Source of the values: patent publication US20250320193A1, “OXOISOINDOLINYL SUBSTITUTED PIPERIDINEDIONE DERIVATIVE AND USE THEREOF” (GLUETACS THERAPEUTICS (SHANGHAI) CO., LTD., priority 2022, published 2025).
